For this assay, the target named is T1, human A2a receptor (Homo sapiens, UniProt P29274).
T1 construct: purchased Perkin-Elmer RBHA2AM400UA; host or cells: HEK293 cell membranes
As to the kind of experiment: A2a receptor competition binding assay using Scintillation Proximity technology. The note with it: membranes from HEK293 cells expressing human A2a receptor; 0.5 nM tritiated radioligand; SPA beads; 1 h room temperature. In outline: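 Membranes of HEK293 cells expressing human A2a, pretreated with adenosine deaminase, incubated 1 h at room temperature with 0.5 nM tritiated pyrazolotriazolopyrimidine antagonist (final) and compound (3000 to 0.15 nM) on WGA SPA beads in Ca/Mg-free PBS with 10 mM MgCl2. Ki from EC50 via Cheng-Prusoff.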
(In general: Scintillation proximity formats need no separation of bound from free tracer.)

In general, EC50 refers to the concentration at which the effect is half-maximal.

T1 sequence (P29274 whole entry): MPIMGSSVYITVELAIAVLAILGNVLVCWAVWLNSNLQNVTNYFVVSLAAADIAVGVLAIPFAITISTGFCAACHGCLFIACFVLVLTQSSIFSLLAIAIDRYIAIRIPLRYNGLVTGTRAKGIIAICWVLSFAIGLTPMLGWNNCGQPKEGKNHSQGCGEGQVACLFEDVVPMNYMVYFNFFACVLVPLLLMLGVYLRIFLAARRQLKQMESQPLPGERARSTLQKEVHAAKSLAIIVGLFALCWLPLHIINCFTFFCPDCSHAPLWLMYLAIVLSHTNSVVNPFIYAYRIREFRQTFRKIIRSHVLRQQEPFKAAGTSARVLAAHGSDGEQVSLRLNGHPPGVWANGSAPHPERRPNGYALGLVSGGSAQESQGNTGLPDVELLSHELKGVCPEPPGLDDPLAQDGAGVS

In turn, `CCC(Cc1nc2c3cccc(OC)c3nc(N)n2n1)N1Cc2cccnc2C1` (stereo not drawn) [Ex-111] returned a concentration giving a half-maximal response (EC50) of 11.9 nM.
In the case of `CC[C@H](Cc1nc2c3cccc(OC)c3nc(N)n2n1)N1Cc2cccnc2C1` [Ex-112] it was 4.9 nM; in that of `CC[C@@H](Cc1nc2c3cccc(OC)c3nc(N)n2n1)N1Cc2cccnc2C1` [Ex-113], 22.8 nM.
In the case of `COc1cccc2c1nc(N)n1nc(CC(C)N3Cc4ccc(F)cc4C3)nc21` (stereo not drawn) [Ex-114] it was 4.3 nM; in that of `CCCC(Cc1nc2c3cccc(OC)c3nc(N)n2n1)N1Cc2cccnc2C1` (stereo not drawn) [Ex-115], 21.6 nM.
With `COc1cccc2c1nc(N)n1nc(CN3Cc4ccc(F)cc4C3)nc21` [Ex-117, 2-((5-fluoroisoindolin-2-yl)methyl)-7-methoxy-[1,2,4]triazolo[1,5-c]quinazolin-5-amine] the figure was 5.9 nM.
The compound `COc1cccc2c1nc(N)n1nc(CN3Cc4cccnc4C3)nc21` [Ex-118, 2-((5H-pyrrolo[3,4-b]pyridin-6(7H)-yl)methyl)-7-methoxy-[1,2,4]triazolo[1,5-c]quinazolin-5-amine] yielded an EC50 of 5.4 nM. The EC50 values of the last two compounds are within 1.5-fold of each other.
The compound `COc1cccc2c1nc(N)n1nc(CN3CCCc4ccccc43)nc21` [Ex-119, 2-((3,4-dihydroquinolin-1(2H)-yl)methyl)-7-methoxy-[1,2,4]triazolo[1,5-c]quinazolin-5-amine] registered an EC50 of 2.1 nM.
With `COc1cccc2c1nc(N)n1nc(CN3CCOc4ccccc43)nc21` [Ex-120, 2-((2H-benzo[b][1,4]oxazin-4(3H)-yl)methyl)-7-methoxy-[1,2,4]triazolo[1,5-c]quinazolin-5-amine] the figure was 1.5 nM.
Turning to `COc1cccc2c1nc(N)n1nc(CN3CCc4ccccc4C3)nc21` [Ex-121], the 50% effective concentration (EC50) was determined as 0.8 nM.
As to `COc1cccc2c1nc(N)n1nc(CN3CCc4cc(C#N)ccc4C3)nc21` [Ex-122, 2-((5-amino-7-methoxy-[1,2,4]triazolo[1,5-c]quinazolin-2-yl)methyl)-1,2,3,4-tetrahydroisoquinoline-6-carbonitrile], the EC50 was 6 nM.
In the case of `COc1cccc2c1nc(N)n1nc(CN3CCc4cccnc4C3)nc21` [Ex-123, 2-((5,6-dihydro-1,7-naphthyridin-7(8H)-yl)methyl)-7-methoxy-[1,2,4]triazolo[1,5-c]quinazolin-5-amine] it was 5.6 nM; in that of `COc1cccc2c1nc(N)n1nc(CN3CCc4ccncc4C3)nc21` [Ex-125, 2-((3,4-dihydro-2,7-naphthyridin-2(1H)-yl)methyl)-7-methoxy-[1,2,4]tri azolo[1,5-c]quinazolin-5-amine], 27.3 nM.
As for `COc1cccc2c1nc(N)n1nc(CN3CCc4cccc(CN5CCN(c6ccccn6)CC5)c4C3)nc21` [Ex-126, 7-methoxy-2-((8-((4-(pyridin-2-yl)piperazin-1-yl)methyl)-3,4-dihydroisoquinolin-2(1H)-yl)methyl)-[1,2,4]triazolo[1,5-c]quinazolin-5-amine], the EC50 stood at 31.6 nM.
In the case of `COc1cccc2c1nc(N)n1nc(CN3Cc4ccc(C(F)(F)F)cc4C3)nc21` [Ex-127, 7-methoxy-2-((2,3,4,5-(trifluoromethyl)isoindolin-2-yl)methyl)-[1,2,4]triazolo[1,5-c]quinazolin-5-amine] it was 8.5 nM; in that of `COc1cccc2c1nc(N)n1nc(CN3CCCCc4ccccc43)nc21` [Ex-128, 7-methoxy-2-((2,3,4,5-tetrahydro-1H-benzo[b]azepin-1-yl)methyl)-[1,2,4]biazolo[1,5-c]quinazolin-5-amine], 2 nM.
In the case of `COc1cccc2c1nc(N)n1nc(CN3CCc4ncc(C(F)(F)F)cc4C3)nc21` [Ex-129, 7-methoxy-2-((3-(trifluoromethyl)-7,8-dihydro-1,6-naphthyridin-6(5H)-yl)methyl)-[1,2,4]tria.zolo[1,5-c]quinazolin-5-amine] it was 40.8 nM; in that of `COc1cccc2c1nc(N)n1nc(CN3CCc4cc(F)ccc4C3)nc21` [Ex-130, 2-((6-fluoro-3,4-dihydroisoquinolin-2(1H)-yl)methyl)-7-methoxy-[1,2,4]triazolo[1,5-c]quinazolin-5-amine], 20.5 nM; in that of `COc1cccc2c1nc(N)n1nc(CN3CCc4ccccc4CC3)nc21` [Ex-131, 2-((4,5-dihydro-1H-benzo[d]azepin-3(2H)-yl)methyl)-7-methoxy-[1,2,4]triazolo[1,5-c]quinazolin-5-amine], 16 nM.
In the case of `COc1cccc2c1nc(N)n1nc(CN3CCCc4ccccc4C3)nc21` [Ex-132, 2-((4,5-dihydro-1H-benzo[c]azepin-2(3H)-yl)methyl)-7-methoxy-[1,2,4]triazolo[1,5-c]quinazolin-5-amine] it was 7.9 nM; in that of `COc1cccc2c1nc(N)n1nc(CN3CCCc4ncccc43)nc21` [Ex-133, 2-((3,4-dihydro-1,5-naphthyridin-1(2H)-yl)methyl)-7-methoxy-[1,2,4]triazolo[1,5-c]quinazolin-5-amine], 27.8 nM; in that of `COc1cccc2c1nc(N)n1nc(CN3CCCc4cnccc43)nc21` [Ex-134, 2-((3,4-dihydro-1,6-naphthyridin-1(2H)-yl)methyl)-7-methoxy-[1,2,4]triazolo[1,5-c]quinazolin-5-amine], 6.7 nM.
The compound `COc1cccc2c1nc(N)n1nc(CN3CCCc4ccncc43)nc21` [Ex-135, 2-((3,4-dihydro-1,7-naphthyridin-1(2H)-yl)methyl)-7-methoxy-[1,2,4]triazolo[1,5-c]quinazolin-5-amine] yielded an EC50 of 11.8 nM.
`COc1cccc2c1nc(N)n1nc(CN3CCN(C)Cc4cc(Cl)ccc43)nc21` [Ex-136, 2-((7-chloro-4-methyl-2,3,4,5-tetrahydro-1H-benzo[e][1,4]diazepin-1-yl)methyl)-7-methoxy-[1,2,4]triazolo[1,5-c]quinazolin-5-amine] showed an EC50 of 191 nM.
With `COc1cccc2c1nc(N)n1nc(CN3Cc4ccc(Cl)nc4C3)nc21` [Ex-137] the figure was 16.1 nM; with `COc1cccc2c1nc(N)n1nc(CN3CCn4c(nnc4SC)C3)nc21` [Ex-138], 146 nM; with `CCOC(=O)c1nnc2n1CCN(Cc1nc3c4cccc(OC)c4nc(N)n3n1)C2` [Ex-139, ethyl 7-((5-amino-7-methoxy-[1,2,4]triazolo[1,5-c]quinazolin-2-yl)methyl)-5,6,7,8-tetrahydro-[1,2,4]triazolo[4,3-a]pyrazine-3-carboxylate], 110 nM.
On to `COc1cccc2c1nc(N)n1nc(CN3CCn4c(Br)nnc4C3)nc21` [Ex-140, 2-((3-bromo-5,6-dihydro-[1,2,4]triazolo[4,3-a]pyrazin-7(8H)-yl)methyl)-7-methoxy-[1,2,4]triazolo[1,5-c]quinazolin-5-amine], for which the EC50 is 104 nM.
With `COc1cccc2c1nc(N)n1nc(CN3CCn4cnnc4C3)nc21` [Ex-141, 2-((5-dihydro-[1,2,4]triazolo[4,3-a]pyrazin-7(8H)-yl)methyl)-7-methoxy-[1,2,4]triazolo[1,5-c]quinazolin-5-amine], the EC50 came out at 149 nM.
`CCc1nnc2n1CCN(Cc1nc3c4cccc(OC)c4nc(N)n3n1)C2` [Ex-142, 2-((3-ethyl-5,6-dihydro-[1,2,4]triazolo[4,3-a]pyrazin-7(8H)-yl)methyl)-7-methoxy-[1,2,4]triazolo[1,5-c]quinazolin-5-amine]: the EC50 is 350 nM.
With `COc1cccc2c1nc(N)n1nc(CN3CCn4c(nnc4C(=O)NC(C)(C)C)C3)nc21` [Ex-143, 7-((5-amino-7-methoxy-[1,2,4]triazolo[1,5-c]quinazolin-2-yl)methyl)-N-tert-butyl-5,6,7,8-tetrahydro-[1,2,4]triazolo[4,3-a]pyrazine-3-carboxamide], it took 74.4 nM to reach a half-maximal effect (EC50).
`COc1cccc2c1nc(N)n1nc(CN3CCn4c(nnc4OC)C3)nc21` [Ex-144, 7-methoxy-2-((3-methoxy-5,6-dihydro[1,2,4]triazolo[4,3-a]pyrazin-7(8H)-yl)methyl)[1,2,4]triazolo[1,5-c]quinazolin-5-amine] showed a concentration for a half-maximal effect (EC50) of 149 nM.
Take `COc1cccc2c1nc(N)n1nc(CN3Cc4nnc(C(F)(F)F)n4C(C)(C)C3)nc21` [Ex-145, 2-((5,5-dimethyl-3-(trifluoromethyl)-5,6-dihydro-[1,2,4]triazolo[4,3-a]pyrazin-7(8H)-yl)methyl)-7-methoxy-[1,2,4]triazolo[1,5-c]quinazolin-5-amine]: the EC50 is 47.8 nM.
On to `COc1cccc2c1nc(N)n1nc(CN3CCn4c(C(F)(F)F)nnc4C3(C)C)nc21` [Ex-146, 2-((8,8-dimethyl-3-(trifluoromethyl)-5,6-dihydro-[1,2,4]triazolo[4,3-a]pyrazin-7(8H)-yl)methyl)-7-methoxy-[1,2,4]triazolo[1,5-c]quinazolin-5-amine], for which the concentration giving a half-maximal response (EC50) came to 29.9 nM.
`COc1cccc2c1nc(N)n1nc(CN3CCc4c(Br)ccnc4C3)nc21` [Ex-148]: a half-maximal response (EC50) required 7.2 nM.
With `COc1cccc2c1nc(N)n1nc(CN3Cc4nc(C(C)C)sc4C3)nc21` [Ex-149, 2-((2-isopropyl-4H-pyrrolo[3,4-d]thiazol-5(6H)-yl)methyl)-7-methoxy-[1,2,4]triazolo[1,5-c]quinazolin-5-amine] the figure was 17.5 nM; with `COc1cccc2c1nc(N)n1nc(CN3CCc4nccnc4C3)nc21` [Ex-150, 2-((7,8-dihydropyrido[4,3-b]pyrazin-6(5H)-yl)methyl)-7-methoxy-[1,2,4]triazolo[1,5-c]quinazolin-5-amine], 27.6 nM; with `COc1cccc2c1nc(N)n1nc(CN3CCc4cncnc4C3)nc21` [Ex-151, 2-((5,6-dihydropyrido[3,4-d]pyrimidin-7(8H)-yl)methyl)-7-methoxy-[1,2,4]triazolo[1,5-c]quinazolin-5-amine], 48.2 nM.
With `COc1cccc2c1nc(N)n1nc(CN3Cc4cnc(C(F)(F)F)nc4C3)nc21` [Ex-152, 7-methoxy-2-((2-(trifluoromethyl)-5H-pyrrolo[3,4-d]pyrimidin-6(7H)-yl)methyl)-[1,2,4]triazolo[1,5-c]quinazolin-5-amine] the figure was 27.8 nM.

The values are drawn from patent US10011615B2, “Heterobicyclo-substituted [1,2,4]triazolo[1,5-c]quinazolin-5-amine compounds with A2A anatagonist properties” (Merck Sharp & Dohme Corp., priority 2012, dated 2018).
